This experiment deals with 11β-HSD1 (Homo sapiens, UniProt P28845). Put plainly: In vitro inhibition of 11β-HSD1, HTRF detection of cortisol generated by human liver microsomes (biological test example 1). The experiment is classed as biochemical. On the set-up: detecting cortisol generated from cortisterone by human liver microsomes; from tissue; host or cells: human liver microsomes. The note with it: 1 hour at 37° C., cortisone 80 nM, NADPH 200 μM, read-out: IC50, inhibitory activity on 11β-HSD 1. The method, then:
Briefly, compounds were incubated for 1 hour at 37° C. in Tris buffer (20 mM tris, 5 mM EDTA, pH 6.0) containing NADPH (200 μM) and cortisone (80 nM). Cortisol generated in the reaction was then detected with a competitive immunoassay, involving two HTRF conjugates: cortisol linked to XL665 and anti-cortisol antibody labeled with Europium cryptate. The incubation period for detection reaction was typically 2 hours. The amount of cortisol was determined by reading the time-resolved fluorescence of the wells (Ex 320/75 nm; Em 615/8.5 nm and 665/7.5 nm). The ratio of the two emission signals was then calculated (Em665*10000/Em615). […] Each assay also contained a calibration curve with cortisol to transform the fluorescent data into cortisol concentrations. Percent inhibition (% CTL) of each compound was determined relative to the carbenoxolone signal and IC50 curves were generated.

11β-HSD1, sequence (P28845 whole entry): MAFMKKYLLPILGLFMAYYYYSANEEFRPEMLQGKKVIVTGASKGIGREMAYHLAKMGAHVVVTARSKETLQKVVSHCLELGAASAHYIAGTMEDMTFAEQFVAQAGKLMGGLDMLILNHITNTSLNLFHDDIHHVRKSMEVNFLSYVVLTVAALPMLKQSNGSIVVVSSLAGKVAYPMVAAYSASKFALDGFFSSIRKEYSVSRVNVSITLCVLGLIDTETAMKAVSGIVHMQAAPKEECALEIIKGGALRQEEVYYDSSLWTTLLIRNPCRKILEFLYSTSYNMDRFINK

One may read the IC50 as the concentration at which inhibition is half-maximal. In the case of `C[C@@H](c1ccc(-c2ccc(C3(C(=O)O)CC3)nn2)cc1)N1CC[C@](CC(C)(C)O)(c2ccccc2)OC1=O` [Example 8, 1-[6-(4-{(S)-1-[(S)-6-(2-Hydroxy-2-methyl-propyl)-2-oxo-6-phenyl-[1,3]oxazinan-3-yl]-ethyl}-phenyl)-pyridazin-3-yl]-cyclopropanecarboxylic acid], the IC50 came to 182 nM.
For `C[C@@H](c1ccc(-c2ccn([C@@H]3CCOC3)c(=O)c2)cc1)N1CC[C@](CC(C)(C)O)(c2ccccc2)OC1=O` [Example 12, (S)-6-(2-Hydroxy-2-methyl-propyl)-3-((S)-1-{4-[2-oxo-1-((R)-tetrahydro-furan-3-yl)-1,2-dihydro-pyridin-4-yl]-phenyl}-ethyl)-6-phenyl-[1,3]oxazinan-2-one], the concentration for half-maximal inhibition (IC50) came to 92 nM.
The result for `C[C@@H](c1ccc(-c2ccc(N3CCC[C@@H]3C(N)=O)nn2)cc1)N1CC[C@](CC(C)(C)O)(c2ccccc2)OC1=O` [Example 55, (R)-1-[6-(4-{(S)-1-[(S)-6-(2-Hydroxy-2-methyl-propyl)-2-oxo-6-phenyl-[1,3]oxazinan-3-yl]-ethyl}-phenyl)-pyridazin-3-yl]-pyrrolidine-2-carboxylic acid amide] reads 87 nM; that for `C[C@@H](c1ccc(-c2cnn(C3CCOCC3)c2)cc1)N1CC[C@](CC(C)(C)O)(c2ccccc2)OC1=O` [Example 14, (S)-6-(2-Hydroxy-2-methyl-propyl)-6-phenyl-3-((S)-1-{4-[1-(tetrahydro-pyran-4-yl)-1H-pyrazol-4-yl]-phenyl}-ethyl)-[1,3]oxazinan-2-one], 48 nM; that for `C[C@@H](c1ccc(-c2ccc(C3(C(N)=O)CCOCC3)nc2)cc1)N1CC[C@](CC(C)(C)O)(c2ccccc2)OC1=O` [Example 50, 4-[5-(4-{(S)-1-[(S)-6-(2-Hydroxy-2-methyl-propyl)-2-oxo-6-phenyl-[1,3]oxazinan-3-yl]-ethyl}-phenyl)-pyridin-2-yl]-tetrahydro-pyran-4-carboxylic acid amide], 73 nM.
The result for `C[C@@H](c1ccc(-c2cnn([C@H]3CCOC3)c2)cc1)N1CC[C@](CC(C)(C)O)(c2ccccc2)OC1=O` [Example 16, (S)-6-(2-Hydroxy-2-methyl-propyl)-6-phenyl-3-((S)-1-{4-[1-((S)-tetrahydro-furan-3-yl)-1H-pyrazol-4-yl]-phenyl}-ethyl)-[1,3]oxazinan-2-one] reads 29 nM.
The result for `C[C@@H](c1ccc(-c2ccc(C3(C(=O)N(C)C)CC3)nn2)cc1)N1CC[C@](CC(C)(C)O)(c2ccccc2)OC1=O` [Example 11, 1-[6-(4-{(S)-1-[(S)-6-(2-Hydroxy-2-methyl-propyl)-2-oxo-6-phenyl-[1,3]oxazinan-3-yl]-ethyl}-phenyl)-pyridazin-3-yl]-cyclopropanecarboxylic acid dimethylamide] reads 94 nM; that for `C[C@@H](c1ccc(-c2ccc(C3(C(=O)N(C)C)CC3)nc2)cc1)N1CC[C@](CC(C)(C)O)(c2ccccc2)OC1=O` [Example 6, 1-[5-(4-{(S)-1-[(S)-6-(2-Hydroxy-2-methyl-propyl)-2-oxo-6-phenyl-[1,3]oxazinan-3-yl]-ethyl}-phenyl)-pyridin-2-yl]-cyclopropanecarboxylic acid dimethylamide], 21 nM.
`C[C@@H](c1ccc(-c2ccc(C3CCN(C)C3=O)nc2)cc1)N1CC[C@](CC(C)(C)O)(c2ccccc2)OC1=O` (stereo partly drawn) [Example 52, (S)-6-(2-Hydroxy-2-methyl-propyl)-3-((S)-1-{4-[6-(1-methyl-2-oxo-pyrrolidin-3-yl)-pyridin-3-yl]-phenyl}-ethyl)-6-phenyl-[1,3]oxazinan-2-one]: the half-inhibitory concentration (IC50) is 42 nM.
Consider `C[C@@H](c1ccc(-c2cnn([C@@H]3CCOC3)c2)cc1)N1CC[C@](CC(C)(C)O)(c2ccccc2)OC1=O` [Example 15, (S)-6-(2-Hydroxy-2-methyl-propyl)-6-phenyl-3-((S)-1-{4-[1-((R)-tetrahydro-furan-3-yl)-1H-pyrazol-4-yl]-phenyl}-ethyl)-[1,3]oxazinan-2-one], for which the half-maximal inhibitory concentration (IC50) stood at 27 nM.
For `C[C@@H](c1ccc(-c2ccc(C3(S(C)(=O)=O)CC3)nc2)cc1)N1CC[C@](CC(C)(C)O)(c2ccccc2)OC1=O` [Example 18, (S)-6-(2-Hydroxy-2-methyl-propyl)-3-((S)-1-{4-[6-(1-methanesulfonyl-cyclopropyl)-pyridin-3-yl]-phenyl}-ethyl)-6-phenyl-[1,3]oxazinan-2-one] the value was 64 nM.
Turning to `C[C@@H](c1ccc(-c2ccc(N3CCC[C@@H]3C(N)=O)nc2)cc1)N1CC[C@](CC(C)(C)O)(c2ccccc2)OC1=O` [Example 53, (R)-1-[5-(4-{(S)-1-[(S)-6-(2-Hydroxy-2-methyl-propyl)-2-oxo-6-phenyl-[1,3]oxazinan-3-yl]-ethyl}-phenyl)-pyridin-2-yl]-pyrrolidine-2-carboxylic acid amide], the half-maximal inhibitory concentration (IC50) was found to be 43 nM.
The result for `C[C@@H](c1ccc(-c2ccnc(C3(C(=O)O)CC3)c2)cc1)N1CC[C@](CC(C)(C)O)(c2ccccc2)OC1=O` [Example 45, 1-[4-(4-{(S)-1-[(S)-6-(2-Hydroxy-2-methyl-propyl)-2-oxo-6-phenyl-[1,3]oxazinan-3-yl]-ethyl}-phenyl)-pyridin-2-yl]-cyclopropanecarboxylic acid] reads 186 nM; that for `C[C@@H](c1ccc(-c2cccc(C3(S(C)(=O)=O)CC3)n2)cc1)N1CC[C@](CC(C)(C)O)(c2ccccc2)OC1=O` [Example 20, (S)-6-(2-Hydroxy-2-methyl-propyl)-3-((S)-1-{4-[6-(1-methanesulfonyl-cyclopropyl)-pyridin-2-yl]-phenyl}-ethyl)-6-phenyl-[1,3]oxazinan-2-one], 73 nM.
Take `C[C@@H](c1ccc(-c2ccc(C3(O)CCN(C)C3=O)nc2)cc1)N1CC[C@](CC(C)(C)O)(c2ccccc2)OC1=O` (stereo partly drawn) [Example 56, 3-((S)-1-{4-[6-(3-Hydroxy-1-methyl-2-oxo-pyrrolidin-3-yl)-pyridin-3-yl]-phenyl}-ethyl)-(S)-6-(2-hydroxy-2-methyl-propyl)-6-phenyl-[1,3]oxazinan-2-one]: the concentration for half-maximal inhibition (IC50) was 59 nM.
For the compound `C[C@@H](c1ccc(-c2ccn([C@H]3CCOC3)c(=O)c2)cc1)N1CC[C@](CC(C)(C)O)(c2ccccc2)OC1=O` [Example 13, (S)-6-(2-Hydroxy-2-methyl-propyl)-3-((S)-1-{4-[2-oxo-1-((S)-tetrahydro-furan-3-yl)-1,2-dihydro-pyridin-4-yl]-phenyl}-ethyl)-6-phenyl-[1,3]oxazinan-2-one], the half-maximal inhibitory concentration (IC50) is 46 nM.
For `CNC(=O)C1(c2cc(-c3ccc([C@H](C)N4CC[C@](CC(C)(C)O)(c5ccccc5)OC4=O)cc3)ccn2)CC1` [Example 47, 1-[4-(4-{(S)-1-[(S)-6-(2-Hydroxy-2-methyl-propyl)-2-oxo-6-phenyl-[1,3]oxazinan-3-yl]-ethyl}-phenyl)-pyridin-2-yl]-cyclopropanecarboxylic acid methylamide], the IC50 came out at 65 nM.
As to `C[C@@H](c1ccc(-c2ccc(C3(C)CCN(C)C3=O)nc2)cc1)N1CC[C@](CC(C)(C)O)(c2ccccc2)OC1=O` (stereo partly drawn) [Example 57, 3-((S)-1-{4-[6-(1,3-Dimethyl-2-oxo-pyrrolidin-3-yl)-pyridin-3-yl]-phenyl}-ethyl)-(S)-6-(2-hydroxy-2-methyl-propyl)-6-phenyl-[1,3]oxazinan-2-one], the IC50 came to 29 nM.
Turning to `C[C@@H](c1ccc(-c2ccc(C3(C#N)CC3)nc2)cc1)N1CC[C@](CC(C)(C)O)(c2ccccc2)OC1=O` [Example 2, 1-[5-(4-{(S)-1-[(S)-6-(2-Hydroxy-2-methyl-propyl)-2-oxo-6-phenyl-[1,3]oxazinan-3-yl]-ethyl}-phenyl)-pyridin-2-yl]-cyclopropanecarbonitrile], the IC50 was 68 nM.
Take `C[C@@H](c1ccc(-c2ccc(C3(S(C)(=O)=O)CC3)cn2)cc1)N1CC[C@](CC(C)(C)O)(c2ccccc2)OC1=O` [Example 25, (S)-6-(2-Hydroxy-2-methyl-propyl)-3-((S)-1-{4-[5-(1-methanesulfonyl-cyclopropyl)-pyridin-2-yl]-phenyl}-ethyl)-6-phenyl-[1,3]oxazinan-2-one]: the IC50 was determined as 84 nM.
The result for `CCOC(=O)C1(c2cc(-c3ccc([C@H](C)N4CC[C@](CC(C)(C)O)(c5ccccc5)OC4=O)cc3)ccn2)CC1` [Example 44, 1-[4-(4-{(S)-1-[(S)-6-(2-Hydroxy-2-methyl-propyl)-2-oxo-6-phenyl-[1,3]oxazinan-3-yl]-ethyl}-phenyl)-pyridin-2-yl]-cyclopropanecarboxylic acid ethyl ester] reads 181 nM; that for `C[C@@H](c1ccc(-c2ccc(C3(C(N)=O)CCC3)nc2)cc1)N1CC[C@](CC(C)(C)O)(c2ccccc2)OC1=O` [Example 51, 1-[5-(4-{(S)-1-[(S)-6-(2-Hydroxy-2-methyl-propyl)-2-oxo-6-phenyl-[1,3]oxazinan-3-yl]-ethyl}-phenyl)-pyridin-2-yl]-cyclobutanecarboxylic acid amide], 80 nM.

For the origin of these results see patent US9090605B2, “Substituted 5-,6- and 7-membered heterocycles, medicaments containing such compounds, and their use” (Vitae Pharmaceuticals, Inc., priority 2010, dated 2015).
